One test concerns HeLa cells. In words: Cell cycle and hypodiploid nuclei analysis by PI staining flow cytometry. It counts as cell-based, human. The settings on record: 72 h, all tested concentrations (50, 30, 20 µM). Here is the method:
Given BAG3’s well-documented anti-apoptotic role, annexin V-FITC/PI staining was performed to evaluate the effects of compound 10 on cell apoptosis. […] Specifically, at 50 µM, 81.0 ± 3.89% of the cells were apoptotic (p < 0.001 vs. Ctrl); at 30 µM, 70.5 ± 4.56% were apoptotic (p < 0.01 vs. Ctrl); and at 20 µM, 51.5 ± 2.23% were apoptotic (p < 0.05 vs. Ctrl) (Figure 3A,B).
Hypodiploid nuclei were analyzed using PI staining by flow cytometry. HeLa cells (1 × 10^5 cells/well) were grown in 12-well plates and allowed to adhere for 24 h. Subsequently, the medium was replaced with fresh medium, and the cells were treated for 72 h with compound 10 at concentrations of 20, 30, and 50 µM, 0.1% (v/v) DMSO (negative control), and 10% (v/v) DMSO (positive control). Following treatment, the culture medium was replaced, and the cells were washed twice with PBS. The cells were then suspended in […] of a solution containing 50 mg/L PI, 0.1% (w/v) sodium citrate, and 0.1% Triton X-100. […] After incubation at 4 °C for 30 min in the dark, cell nuclei were analyzed using a Becton Dickinson FACS flow cytometer (Franklin Lakes, NJ, USA) with the Cell Quest program, and the DNA content of the nuclei was recorded. Cellular debris was excluded from the analysis by increasing the forward scatter threshold, and the percentages of cells in the hypodiploid region (sub-G0/G1), G1, S, and G2 regions were calculated. […]
Background: In flow cytometry, cells or beads pass a laser one at a time.

In the next test the test system is HaCat cells. In words: MTT cell viability assay on HaCat healthy cells. The settings on record: Homo sapiens, 72 h, seven concentrations (1 to 100 μM). It counts as cell-based. Here is the method:
Elevated expression levels of BAG3 are strongly associated with signaling pathways in various types of malignant cells; consequently, reducing the activity of this co-chaperone inhibits cell proliferation, triggers apoptosis, and induces cell cycle arrest. To assess the activity of compounds 10, 12, and 14, cytotoxicity assays were performed on HeLa cells, which were chosen for their tendency to overexpress BAG3 proteins. MTT assays were conducted by exposing HeLa cells to different concentrations of the compounds (25, 50, and 100 µM) for 72 h. Additionally, 10% DMSO was used as a positive control, while 0.1% DMSO served as a negative control. […] The next step involved the assessment of the cytotoxicity of the most promising candidate, 10, on healthy cells to determine its safety profile. To achieve this, MTT assays were conducted on HaCat cells over 72 h. […]
Cell viability was assessed by measuring mitochondrial metabolic activity using a colorimetric assay, which involves the reduction of 3-[4,5-dimethylthiazol-2,5-diphenyl-2H-tetrazolium bromide (MTT) to purple formazan. […] Absorbance was measured at 570 nm using a Multiskan™ GO Microplate Spectrophotometer (Thermo Fisher Scientific, Waltham, MA, USA,). […]
(Formazan colour is commonly taken as a measure of viable cells.)

On to `CC(C)Nc1c(-c2ccccc2Br)nc2ccc(Cl)cn12` [Compound 10, 2-(2-bromophenyl)-6-chloro-N-isopropylimidazo[1,2-a]pyridin-3-amine], for which, in the test with HeLa cells, the cell cycle arrest result was “consistent and significant cell cycle arrest”; the hypodiploid nuclei entry is given as “increase in hypodiploid nuclei”. Moreover, 81.3 ± 4.83 µM corresponded to half-maximal inhibition in the test on HaCat cells (IC50).

One may read the IC50 as the concentration that gives 50% inhibition.

These data come from PMC11547576, “Identification of a New Promising BAG3 Modulator Featuring the Imidazopyridine Scaffold” (Molecules, 2024).
